What was measured:
pulmonary sarcoidosis = format: in vivo, human; details: prednisone tapered from 40 mg to 25 mg a day
Description: (§1) Patient was diagnosed with a medical condition known as pulmonary sarcoidosis in which immune cells (lymphocytes and macrophages) are abnormally activated and accumulate in the lung, progressively destroying the architecture and functional capacity of lung tissue. Treatment is necessary to prevent progression of the disease and loss of more pulmonary functional capacity. Standard treatment is with systemic corticosteroids due to the capacity of corticosteroids for suppressing immune function. Patient was started on prednisone 40 mg by mouth each morning, with a plan to taper the dose by 5 mg every two weeks until at 25 mg a day. After three months the level of response to corticosteroids would be assessed by repeat pulmonary function tests and chest x-ray. If the disease process was responsive to corticosteroids, the treatment would be continued to finish a full year on about 25 mg a day.
The memory disturbance was profound and sharply contrasted with patient's normal memory function. The “foggy” feeling was present all day long, and was similar to the feeling of having taken a sedating antihistamine like diphenhydramine (Benadryl). Patient found they could only concentrate with much effort, with rapidly developing mental fatigue preventing sustained efforts. […]

[1] = system: corticosteroid-induced cognitive impairment; experiment: Case report (Example 1): tianeptine given to a patient with cognitive side effects from prednisone therapy; format: in vivo, human
Description: as §1
The memory disturbance was profound and sharply contrasted with patient's normal memory function. The “foggy” feeling was present all day long, and was similar to the feeling of having taken a sedating antihistamine like diphenhydramine (Benadryl). Patient found they could only concentrate with much effort, with rapidly developing mental fatigue preventing sustained efforts. Examples of memory impairment resulting from the prednisone were much like some of the memory disturbance seen in Alzheimer's dementia in which there is impairment in the process of consolidation of short term memories into long term memories, a process known to depend on intact hippocampal function.
Patient began tianeptine (Stablon) at 12.5 mg, one pill in the morning. Four days later, patient increased the dose to 12.5 mg twice a day, finally, two days after the prior increase, patient increased the dose to 25 mg each morning and 12.5 mg each evening. In the first several days taking tianeptine, patient noted the “foggy” feeling had gone away.
Although beginning tianeptine correlated with the rapid improvement in cognitive function, it was uncertain whether the tianeptine was responsible for the improvement.
There was the alternate possibility that patient was simply adjusting to the corticosteroids, with reduction in the cognitive side effects manifesting over the first several weeks after beginning corticosteroids. Nonetheless, patient continued to take the tianeptine. Also, it seemed possible that prednisone at 40 mg a day had been producing worse side effects than the lower doses of 35 mg, 30 mg, and 25 mg a day patient had tapered down to after starting the tianeptine.
Patient stopped tianeptine treatment two months later, tapering the dose over three days. Within about 2-3 days after the final dose of tianeptine, patient experienced the gradual emergence of the same cognitive side effects of the corticosteroids that patient had been experiencing in before initial tianeptine treatment including poor memory, extreme difficulty concentrating and sustaining mental effort, and the general “foggy” feeling once again pervading. This continued up for two weeks when patient restarted tianeptine treatment. […] Patient has continued on tianeptine 25 mg each morning and 12.5 mg each evening since then.

[2] = patient on prednisone, first several days taking tianeptine

SMILES	follow-up pulmonary function tests (pulmonary sarcoidosis)	time frame of effect after initiation of treatment ([1]; mitigation of corticosteroid cognitive side effects)	effect of tianeptine in mitigating the side effects of the corticosteroids ([1]; off/on tianeptine episode, 25 mg each morning and 12.5 mg each evening)	ability to concentrate [1, 2]	episodic memory [1, 2]	"foggy" feeling ([1]; patient on prednisone, first several days taking tianeptine 12.5 mg up to 25 mg morning + 12.5 mg evening, oral)	time after restarting tianeptine to definite improvement ([1]; restart after two weeks off tianeptine, on prednisone)	cognitive function after restarting tianeptine ([1]; three days after restart, on prednisone)	time after final dose of tianeptine to gradual emergence of the same cognitive side effects of the corticosteroids ([1]; tianeptine stopped (tapered over three days), prednisone 25 mg a day continued)
C[C@]12C=CC(=O)C=C1CC[C@@H]1[C@@H]2C(=O)C[C@@]2(C)[C@H]1CC[C@]2(O)C(=O)CO [prednisone]	indicated improvement	–	–	–	–	–	–	–	–
CN1c2ccccc2C(NCCCCCCC(=O)O)c2ccc(Cl)cc2S1(=O)=O (stereo not drawn) [tianeptine, 7-[(3-chloro-6,11-dihydro-6-methyl-dibenzo[c,f][1,2]thiazepin-11-yl)amino] heptanoic acid S,S-dioxide]	–	24 to 72 h	large effect	appeared to normalize	significantly improved	had gone away	≤ 24 h	pretty much returned to normal baseline	2 to 3 days
